The values below come from patent US10344025B2, “GLS1 inhibitors for treating disease” (Board of Regents, The University of Texas System, priority 2014, dated 2019).

Assay [1] concerns the target purified recombinant human GAC (GLS1) (Homo sapiens (Human), UniProt O94925). Description: GLS1 Enzymatic Activity Assay (dual-coupled enzymatic assay, resorufin/Amplex UltraRed readout).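 Further: glutamate from GAC coupled via glutamate oxidase and peroxidase to resorufin, read as fluorescence (ex 530, em 590 nm) kinetically or at 20 min, four-parameter logistic IC50 fit.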 It counts as biochemical.
For a further assay, the system named is A549 cells. Description: Proliferation Assay (A549 viability, Cell Titer Fluor, 72 hours). It counts as cell-based. Particulars: Homo sapiens, A549, 72 h. An outline of the steps:
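Cell Titer Fluor fluorescence after 72 h compound treatment (0.5% DMSO, 37 °C, 5% CO2) of A549 cells plated 24 h earlier at 1000/well. Four-parameter logistic fitting gave IC50.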

Chain of purified recombinant human GAC (GLS1) (O94925 other isoform, or with tags, fused parts or gaps): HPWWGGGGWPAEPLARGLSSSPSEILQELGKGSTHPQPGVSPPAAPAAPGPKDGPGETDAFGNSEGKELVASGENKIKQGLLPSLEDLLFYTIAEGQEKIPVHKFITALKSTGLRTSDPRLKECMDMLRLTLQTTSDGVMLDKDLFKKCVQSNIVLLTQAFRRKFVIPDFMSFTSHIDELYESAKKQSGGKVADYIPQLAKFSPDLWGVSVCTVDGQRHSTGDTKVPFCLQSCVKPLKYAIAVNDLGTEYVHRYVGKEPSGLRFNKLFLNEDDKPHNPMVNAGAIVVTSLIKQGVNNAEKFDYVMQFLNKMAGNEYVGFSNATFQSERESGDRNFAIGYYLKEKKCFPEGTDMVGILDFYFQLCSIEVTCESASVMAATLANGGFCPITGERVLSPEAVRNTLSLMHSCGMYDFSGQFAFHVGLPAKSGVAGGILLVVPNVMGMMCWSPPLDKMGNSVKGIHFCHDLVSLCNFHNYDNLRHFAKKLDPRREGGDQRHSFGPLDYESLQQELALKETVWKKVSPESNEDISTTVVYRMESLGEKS

Regarding `CCOC(=O)NCc1cn(CCCCn2cc(C(=O)NCc3cccc(OC(F)(F)F)c3)nn2)nn1` [Example 54, ethyl N-[(1-{4-[4-({[3-(trifluoromethoxy)phenyl]methyl}carbamoyl)-1H-1,2,3-triazol-1-yl]butyl}-1H-1,2,3-triazol-4-yl)methyl] carbamate], the IC50 in assay [1] fell in the range of 100 to 500 nM. Besides, the EC50 in the assay with A549 cells is 100 to 500 nM.

As for `CC(C)CC(=O)NCc1cn(CCCCn2cc(C(=O)NCc3cccc(OC(F)(F)F)c3)nn2)nn1` [Example 55, l-(4-{4-[(3-methylbutanamido)methyl]-1H-1,2,3-triazol-1-yl}butyl)-N-{[3-(trifluoromethoxy)phenyl]methyl}-1H-1,2,3-triazole-4-carboxamide], in assay [1], the IC50 is 100 to 500 nM. The EC50 with A549 cells fell in the range of 500 to 5000 nM.

With `CC(C)COC(=O)NCc1cn(CCCCn2cc(C(=O)NCc3cccc(OC(F)(F)F)c3)nn2)nn1` [Example 56, 2-methylpropyl N-[(1-{4-[4-({[3-(trifluoromethoxy)phenyl]methyl}carbamoyl)-1H-1,2,3-triazol-1-yl]butyl}-1H-1,2,3-triazol-4-yl)methyl]carbamate], the IC50 in assay [1] was < 100 nM. In the assay with A549 cells, the EC50 was < 100 nM.

Turning to `O=C(NCc1cccc(OC(F)(F)F)c1)c1cn(CCCCc2nnc(C(=O)NCC3CC3)s2)nn1` [Example 59, N-(cyclopropylmethyl)-5-{4-[4-({[3-(trifluoromethoxy)phenyl]methyl}carbamoyl)-1H-1,2,3-triazol-1-yl]butyl}-1,3,4-thiadiazole-2-carboxamide], in assay [1], the 50% inhibitory concentration (IC50) fell in the range of 100 to 500 nM. Further, the EC50 in the assay with A549 cells lay in the range of 500 to 5000 nM.

As to `Cc1ccc(CNC(=O)c2nnc(CCCCn3cc(C(=O)NCc4cccc(OC(F)(F)F)c4)nn3)s2)cn1` [Example 60, N-[(6-methylpyridin-3-yl)methyl]-5-{4-[4-({[3-(trifluoromethoxy)phenyl]methyl}carbamoyl)-1H-1,2,3-triazol-1-yl]butyl}-1,3,4-thiadiazole-2-carboxamide], the 50% inhibitory concentration (IC50) in assay [1] was < 100 nM. Moreover, the EC50 in the assay with A549 cells was < 100 nM.

For the molecule `Cc1ccc(CNC(=O)c2cn(CCCCc3nnc(C(=O)NCc4cccc(OC(F)(F)F)c4)s3)nn2)cn1` [Example 61], the IC50 in assay [1] was < 100 nM. Moreover, the EC50 in the assay on A549 cells was < 100 nM.

Consider `Cc1ccc(CNC(=O)c2cn(CCCCc3nnc(C(=O)NCc4ccccn4)s3)nn2)cn1` [Example 62, 5-[4-(4-{[(6-methylpyridin-3-yl)methyl]carbamoyl}-1H-1,2,3-triazol-1-yl)butyl]-N-(pyridin-2-ylmethyl)-1,3,4-thiadiazole-2-carboxamide], for which the IC50 in assay [1] was 100 to 500 nM. For the same molecule, the EC50 in the assay on A549 cells lay within 500 to 5000 nM.

`Cc1ccc(CNC(=O)c2cn(CCCCc3nnc(C(=O)NCC4CC4)s3)nn2)cn1` [Example 63, N-(cyclopropylmethyl)-5-[4-(4-{[(6-methylpyridin-3-yl)methyl]carbamoyl}-1H-1,2,3-triazol-1-yl)butyl]-1,3,4-thiadiazole-2-carboxamide]: the half-maximal inhibitory concentration (IC50) in assay [1] fell in the range of 100 to 500 nM. Besides, the EC50 in the assay with A549 cells was in the range of 500 to 5000 nM.

Consider `Cc1ccc(CNC(=O)c2cn(CCCCc3nnc(C(=O)NCc4ccc(C)nc4)s3)nn2)cn1` [Example 64, N-[(6-methylpyridin-3-yl)methyl]-5-[4-(4-{[(6-methylpyridin-3-yl)methyl]carbamoyl}-1H-1,2,3-triazol-1-yl)butyl]-1,3,4-thiadiazole-2-carboxamide], for which, in assay [1], the IC50 is < 100 nM. In the assay on A549 cells, the EC50 is 500 to 5000 nM.

Regarding `O=C(NCc1ccccn1)c1cn(CCCCc2nnc(C(=O)NCc3cccc(OC(F)(F)F)c3)s2)nn1` [Example 65, 5-(4-{4-[(pyridin-2-ylmethyl)carbamoyl]-1H-1,2,3-triazol-1-yl}butyl)-N-{[3-(trifluoromethoxy)phenyl]methyl}-1,3,4-thiadiazole-2-carboxamide], the IC50 in assay [1] is < 100 nM. Besides, the EC50 in the assay with A549 cells is 100 to 500 nM.

With `Cc1ccc(CNC(=O)c2cn(CCCCn3cc(C(=O)NCc4cccc(OC(F)(F)F)c4)nn3)nn2)cn1` [Example 72, 1-[4-(4-{[(6-methylpyridin-3-yl)methyl]carbamoyl}-1H-1,2,3-triazol-1-yl)butyl]-N-{[3-(trifluoromethoxy)phenyl]methyl}-1H-1,2,3-triazole-4-carboxamide], in assay [1], the IC50 was < 100 nM. The concentration for a half-maximal effect (EC50) in the assay on A549 cells is < 100 nM.

Consider `CC(C)(C)OC(=O)N1CC(CNC(=O)c2nnc(CCCCn3cc(C(=O)NCc4cccc(OC(F)(F)F)c4)nn3)s2)C1` [Example 73, tert-butyl 3-{[(5-{4-[4-({[3-(trifluoromethoxy)phenyl]methyl}carbamoyl)-1H-1,2,3-triazol-1-yl]butyl}-1,3,4-thiadiazol-2-yl)formamido]methyl}azetidine-1-carboxylate], for which the IC50 in assay [1] is < 100 nM. For the same molecule, in the assay on A549 cells, the EC50 was < 100 nM.

Regarding `O=C(NCc1cccc(OC(F)(F)F)c1)c1cn(CCCCc2nnc(C(=O)NCc3cc(C(F)(F)F)ccn3)s2)nn1` [Example 75, 5-{4-[4-({[3-(trifluoromethoxy)phenyl]methyl}carbamoyl)-1H-1,2,3-triazol-1-yl]butyl}-N-{[4-(trifluoromethyl)pyridin-2-yl]methyl}-1,3,4-thiadiazole-2-carboxamide], in assay [1], the IC50 is < 100 nM. Besides, in the assay with A549 cells, the half-maximal effective concentration (EC50) is < 100 nM.

Take `O=C(NCc1cccc(OC(F)(F)F)c1)c1cn(CCCCc2nnc(C(=O)NCc3cncc(C(F)(F)F)c3)s2)nn1` [Example 76, 5-{4-[4-({[3-(trifluoromethoxy)phenyl]methyl}carbamoyl)-1H-1,2,3-triazol-1-yl]butyl}-N-{[5-(trifluoromethyl)pyridin-3-yl]methyl}-1,3,4-thiadiazole-2-carboxamide]: in assay [1], the concentration for half-maximal inhibition (IC50) is < 100 nM. Further, in the assay on A549 cells, the EC50 was < 100 nM.

Regarding `O=C(NCc1cccc(OC(F)(F)F)c1)c1cn(CCCCc2nnc(C(=O)NCc3ccc(C(F)(F)F)cn3)s2)nn1` [Example 77, 5-{4-[4-({[3-(trifluoromethoxy)phenyl]methyl}carbamoyl)-1H-1,2,3-triazol-1-yl]butyl}-N-{[5-(trifluoromethyl)pyridin-2-yl]methyl}-1,3,4-thiadiazole-2-carboxamide], the IC50 in assay [1] is < 100 nM. Moreover, in the assay with A549 cells, the EC50 is < 100 nM.

For `O=C(NCc1cccc(OC(F)(F)F)c1)c1cn(CCCCc2nnc(C(=O)NCc3ccc(C(F)(F)F)nc3)s2)nn1` [Example 78, 5-{4-[4-({[3-(trifluoromethoxy)phenyl]methyl}carbamoyl)-1H-1,2,3-triazol-1-yl]butyl}-N-{[6-(trifluoromethyl)pyridin-3-yl]methyl}-1,3,4-thiadiazole-2-carboxamide], the IC50 in assay [1] is < 100 nM. For the same molecule, the EC50 with A549 cells was < 100 nM.

As to `CC(C)(C)OC(=O)N1CC(CNC(=O)c2cn(CCCCn3cc(C(=O)NCc4cccc(OC(F)(F)F)c4)nn3)nn2)C1` [Example 79, tert-butyl 3-{[(1-{4-[4-({[3-(trifluoromethoxy)phenyl]methyl}carbamoyl)-1H-1,2,3-triazol-1-yl]butyl}-1H-1,2,3-triazol-4-yl)formamido]methyl}azetidine-1-carboxylate], the concentration for half-maximal inhibition (IC50) in assay [1] was < 100 nM. Also, in the assay with A549 cells, the EC50 was < 100 nM.

Turning to `O=C(NCc1cccc(OC(F)(F)F)c1)c1cn(CCCCn2cc(C(=O)NCc3cncc(C(F)(F)F)c3)nn2)nn1` [Example 80, N-(3-(trifluoromethoxy)benzyl)-1-(4-(4-(((5-(trifluoromethyl)pyridin-3-yl)methyl)carbamoyl)-1H-1,2,3-triazol-1-yl)butyl)-1H-1,2,3-triazole-4-carboxamide], the IC50 in assay [1] was < 100 nM. Also, the EC50 in the assay with A549 cells was < 100 nM.

As for `O=C(NCc1ccc(C(F)(F)F)nc1)c1cn(CCCCn2cc(C(=O)NCc3cccc(OC(F)(F)F)c3)nn2)nn1` [Example 82, 1-{4-[4-({[3-(trifluoromethoxy)phenyl]methyl}carbamoyl)-1H-1,2,3-triazol-1-yl]butyl}-N-{[6-(trifluoromethyl)pyridin-3-yl]methyl}-1H-1,2,3-triazole-4-carboxamide], in assay [1], the half-inhibitory concentration (IC50) is < 100 nM. Also, the 50% effective concentration (EC50) in the assay with A549 cells was < 100 nM.

For `O=C(NCc1cccc(OC(F)(F)F)c1)c1cn(CCCCn2cc(C(=O)NCc3cc(C(F)(F)F)ccn3)nn2)nn1` [Example 83, N-{[3-(trifluoromethoxy)phenyl]methyl}-1-{4-[4-({[4-(trifluoromethyl)pyridin-2-yl]methyl}carbamoyl)-1H-1,2,3-triazol-1-yl]butyl}-1H-1,2,3-triazole-4-carboxamide], in assay [1], the IC50 was < 100 nM. For the same molecule, the EC50 in the assay with A549 cells was < 100 nM.

Regarding `O=C(NCc1cncc(C(F)(F)F)c1)c1cn(CCCCn2cc(C(=O)NCC3CCCC3)nn2)nn1` [Example 84], in assay [1], the IC50 is 100 to 500 nM. This molecule displayed a half-maximal effective concentration (EC50) in the assay on A549 cells of 100 to 500 nM.

For `O=C(NCc1cc(C(F)(F)F)ccn1)c1cn(CCCCn2cc(C(=O)NCC3CCC3)nn2)nn1` [Example 85, 1-(4-{4-[(cyclobutylmethyl)carbamoyl]-1H-1,2,3-triazol-1-yl}butyl)-N-{[4-(trifluoromethyl)pyridin-2-yl]methyl}-1H-1,2,3-triazole-4-carboxamide], in assay [1], the IC50 lay within 500 to 5000 nM. In the assay with A549 cells, this molecule had an EC50 of 500 to 5000 nM.

`O=C(NCc1cc(C(F)(F)F)ccn1)c1cn(CCCCn2cc(C(=O)NCC3CCOC3)nn2)nn1` (stereo not drawn) [Example 86]: the IC50 in assay [1] lay in the range of 500 to 5000 nM. Besides, the concentration for a half-maximal effect (EC50) in the assay with A549 cells is > 5000 nM.

As to `O=C(NCc1cc(C(F)(F)F)ccn1)c1cn(CCCCn2cc(C(=O)NCC3COC3)nn2)nn1` [Example 87], in assay [1], the half-maximal inhibitory concentration (IC50) is 500 to 5000 nM. In addition, the EC50 with A549 cells was > 5000 nM.

As to `CNC(=O)c1cn(CCCCn2cc(C(=O)NCc3cc(C(F)(F)F)ccn3)nn2)nn1` [Example 88, 1-{4-[4-(methylcarbamoyl)-1H-1,2,3-triazol-1-yl]butyl}-N-{[4-(trifluoromethyl)pyridin-2-yl]methyl}-1H-1,2,3-triazole-4-carboxamide], the half-inhibitory concentration (IC50) in assay [1] was in the range of 500 to 5000 nM. In the assay with A549 cells, the concentration giving a half-maximal response (EC50) was in the range of 500 to 5000 nM.

As to `O=C(NCc1cc(C(F)(F)F)ccn1)c1cn(CCCCn2cc(C(=O)NCC3CC3)nn2)nn1` [Example 89], in assay [1], the IC50 was 500 to 5000 nM. In addition, the 50% effective concentration (EC50) with A549 cells was 500 to 5000 nM.

Consider `O=C(NCc1cc(C(F)(F)F)ccn1)c1cn(CCCCn2cc(C(=O)NCC3CCCCC3)nn2)nn1` [Example 90], for which the IC50 in assay [1] lay within 100 to 500 nM. The molecule further came in with a 50% effective concentration (EC50) with A549 cells of 100 to 500 nM.
